Test results published in article PMC6445193 (Journal of Enzyme Inhibition and Medicinal Chemistry, 2017).
pIC50: −log10 of the molar value. Like-named read-outs stand apart in the source and are kept apart here. Blank lines part the entries; values can stand above or below the compound they belong to.

Experiments:
[1] = molecular target: T1, human S-adenosyl-homocysteine hydrolase (rSAHH) (Homo sapiens, UniProt P23526); experiment: SAHH inhibition, IC50 determination with recombinant SAHH (hydrolysis of SAH, Hcy determined with DTNB); format: biochemical
T1 sequence (P23526 whole entry): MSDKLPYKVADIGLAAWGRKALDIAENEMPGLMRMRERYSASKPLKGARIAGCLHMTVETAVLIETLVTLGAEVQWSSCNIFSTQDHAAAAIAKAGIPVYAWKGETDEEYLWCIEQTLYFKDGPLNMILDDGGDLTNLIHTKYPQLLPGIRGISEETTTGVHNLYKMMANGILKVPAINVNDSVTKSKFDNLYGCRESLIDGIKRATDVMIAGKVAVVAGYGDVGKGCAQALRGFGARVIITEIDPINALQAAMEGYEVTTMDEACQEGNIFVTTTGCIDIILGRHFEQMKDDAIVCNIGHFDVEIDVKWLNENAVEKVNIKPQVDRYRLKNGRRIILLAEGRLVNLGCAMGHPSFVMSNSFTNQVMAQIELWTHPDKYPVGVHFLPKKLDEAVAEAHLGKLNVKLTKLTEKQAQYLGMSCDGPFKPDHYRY

[2] = system: SAHH; design: method as in PMID 24813734; settings: data from literature; cited from earlier work
[3] = design: method as in PMID 24813734; settings: long term exposure; cited from earlier work
[4] = molecular target: T1, human S-adenosyl-homocysteine hydrolase (rSAHH); experiment: Enzyme kinetics of SAHH-catalyzed hydrolysis of SAH; format: biochemical
[5] = system: brain homocysteine; design: method as in PMID 24813734; settings: reported by Converso; cited from earlier work
[6] = recombinant human SAHH, Tris-HCl pH 6.5, read-out: SAHH IC50

Structure (SMILES): COc1ccc(C=O)cc1 [Compound 2]
pIC50 [1, 6]: 5.67

Structure (SMILES): COc1ccc(/C=C/C(=O)O)cc1 [Compound 11]
pIC50 [1, 6]: 6.01

Structure (SMILES): COc1cc(C=O)ccc1O [Compound 5]
pIC50 [1, 6]: 5.96

Structure (SMILES): Nc1ncnc2c1ncn2[C@@H]1C=C(CO)[C@@H](O)[C@H]1O [NepA, Neplanocin A]
pIC50 [2]: 8.82
cytotoxicity [3]: cytotoxic upon long term exposure

pIC50 [1, 6]: 6.09
Structure (SMILES): COC(=O)/C=C/c1ccc(CBr)cc1 [Compound 4]

pIC50 [1, 6]: 6.17
Structure (SMILES): O=C(O)c1ccc(F)cc1 [Compound 8]

Structure (SMILES): O=C(OO)c1ccc(Cl)cc1 [Compound 6]
pIC50 [1]: 6.25

pIC50 [1, 6]: 5.85
Structure (SMILES): CCOC(=O)c1ccc(N)cc1 [Compound 10]

Structure (SMILES): Fc1ccc(CBr)c(F)c1 [Compound 3]
pIC50 [1]: 6.04

Structure (SMILES): On1nnc2ccccc21 [Compound 1]
pIC50 [1]: 5.90

Structure (SMILES): Oc1ccc(Cl)c(O)c1 [Compound 7]
pIC50 [1]: 5.95

Structure (SMILES): Nc1ncnc2c1ncn2[C@@H]1O[C@H](CSCC[C@H](N)C(=O)O)[C@@H](O)[C@H]1O [SAH, S-adenosylhomocysteine]
Km ([4]; read-out: apparent Km of the hydrolytic reaction, substrate SAH): ~21.8 µM
Vmax ([4]; substrate SAH): 22.9 µM/min

pIC50 [1, 6]: 6.24
Structure (SMILES): O=C(O)/C=C/c1ccc(Cl)cc1 [Compound 12]

Structure (SMILES): Nc1ncc(F)c2c1ncn2[C@@H]1CC[C@@H](O)[C@H]1O [20 ^*]
pIC50 [2]: 7.40
effect on brain homocysteine [5]: reduce brain homocysteine in a dose-dependent manner

pIC50 [1, 6]: 7.47
Structure (SMILES): COc1cc(C=CCO)ccc1O [Compound 13, 4-(3-hydroxyprop-1-en-1-yl)-2-methoxyphenol]

Structure (SMILES): COc1ccc(N)cc1 [Compound 9]
pIC50 [1, 6]: 6.05
